Molecules are shown by their SMILES. Several values for one entry are separate records, joined by “and”; a condition that tells them apart may be missing. Equal entries are not always repeated. Inconclusive results and toxic doses are left out.

This assay relates to CD2F1 mice, L1210 leukemia sc, survival T/C. Briefly: NCI In Vivo Anticancer Drug Screen. Data for tumor model L1210 Leukemia (subcutaneous) in CD2F1 (CDF1) mice. Particulars: endpoint: median survival time, higher = longer survival. Put shortly: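 Read-out: survival or tumor size. Value = treated (T) / vehicle control (C). Transplantable tumor in mice.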

As for `O=C(NO)c1cc(O)c(O)c(O)c1`, the T/C is, setting by setting: (dose: 25.0 mg/kg/injection, schedule: Q01DX009 (ip), vehicle: distilled water + Tween-80) 97 % of control and 100 % of control; (dose: 50.0 mg/kg/injection, schedule: Q01DX009 (ip), vehicle: distilled water + Tween-80) 104 % of control; (dose: 100.0 mg/kg/injection, schedule: Q01DX009 (ip), vehicle: distilled water + Tween-80) 100 % of control and 102 % of control; (dose: 200.0 mg/kg/injection, schedule: Q01DX009 (ip), vehicle: distilled water + Tween-80) 124 % of control; (dose: 400.0 mg/kg/injection, schedule: Q01DX009 (ip), vehicle: distilled water + Tween-80) 90 % of control.
Take `S=P(N1CC1)(N1CC1)N1CC1`: the T/C was 107 % of control (dose: 1.5 mg/kg/injection, schedule: Q01DX009 (ip), vehicle: water); 105 % of control (dose: 1.5 mg/kg/injection, schedule: Q01DX009 (sc), vehicle: water); 105 % of control (dose: 3.0 mg/kg/injection, schedule: Q01DX009 (ip), vehicle: water); 121 % of control (dose: 3.0 mg/kg/injection, schedule: Q01DX009 (sc), vehicle: saline); 101 % of control (dose: 3.0 mg/kg/injection, schedule: Q01DX009 (sc), vehicle: water); 121 % of control (dose: 6.0 mg/kg/injection, schedule: Q01DX009 (ip), vehicle: water). In addition, the T/C runs as follows: (dose: 6.0 mg/kg/injection, schedule: Q01DX009 (sc), vehicle: saline) 166 % of control and 176 % of control; (dose: 6.0 mg/kg/injection, schedule: Q01DX009 (sc), vehicle: water) 122 % of control; (dose: 24.0 mg/kg/injection, schedule: Q01DX009 (ip), vehicle: water) 194 % of control; (dose: 24.0 mg/kg/injection, schedule: Q01DX009 (sc), vehicle: water) 157 % of control; (dose: 12.0 micrograms/kg/injection, schedule: Q01DX009 (ip), vehicle: saline) 100 % of control; (dose: 12.0 micrograms/kg/injection, schedule: Q01DX009 (sc), vehicle: saline) 107 % of control. In addition, the T/C is, setting by setting: (dose: 25.0 micrograms/kg/injection, schedule: Q01DX009 (ip), vehicle: saline) 104 % of control; (dose: 25.0 micrograms/kg/injection, schedule: Q01DX009 (sc), vehicle: saline) 98 % of control; (dose: 50.0 micrograms/kg/injection, schedule: Q01DX009 (ip), vehicle: saline) 104 % of control; (dose: 50.0 micrograms/kg/injection, schedule: Q01DX009 (sc), vehicle: saline) 100 % of control; (dose: 100.0 micrograms/kg/injection, schedule: Q01DX009 (ip), vehicle: saline) 100 % of control; (dose: 100.0 micrograms/kg/injection, schedule: Q01DX009 (sc), vehicle: saline) 98 % of control. Besides, the T/C runs as follows: (dose: 200.0 micrograms/kg/injection, schedule: Q01DX009 (ip), vehicle: saline) 96 % of control; (dose: 200.0 micrograms/kg/injection, schedule: Q01DX009 (sc), vehicle: saline) 102 % of control; (dose: 400.0 micrograms/kg/injection, schedule: Q01DX009 (ip), vehicle: saline) 102 % of control; (dose: 400.0 micrograms/kg/injection, schedule: Q01DX009 (sc), vehicle: saline) 102 % of control.
On to `O=c1n(CC2CO2)c(=O)n(CC2CO2)c(=O)n1CC1CO1` (stereo not given), for which the T/C is, setting by setting: (dose: 12.5 mg/kg/injection, schedule: Q04DX003 (ip), vehicle: saline) 106 % of control; (dose: 25.0 mg/kg/injection, schedule: Q04DX003 (ip), vehicle: saline) 114 % of control; (dose: 40.0 mg/kg/injection, schedule: Q01DX009 (ip), vehicle: saline) 150 % of control and 191 % of control; (dose: 40.0 mg/kg/injection, schedule: Q04DX003 (ip), vehicle: saline) 114 % of control; (dose: 50.0 mg/kg/injection, schedule: Q01DX009 (ip), vehicle: saline) 172 % of control and 193 % of control; (dose: 50.0 mg/kg/injection, schedule: Q04DX003 (ip), vehicle: saline) 153 % of control and 172 % of control.
As to `CCOC(C)C(/C=N/NC(N)=S)=NNC(N)=S` (stereo not given), the T/C was 110 % of control (dose: 65.0 mg/kg/injection, schedule: Q01DX Z (sc), vehicle: carboxymethylcellulose (CMC)); 110 % of control (dose: 108.0 mg/kg/injection, schedule: Q01DX Z (sc), vehicle: carboxymethylcellulose (CMC)); 120 % of control (dose: 180.0 mg/kg/injection, schedule: Q01DX Z (sc), vehicle: carboxymethylcellulose (CMC)); 110 % of control (dose: 300.0 mg/kg/injection, schedule: Q01DX Z (sc), vehicle: carboxymethylcellulose (CMC)).
With `Nc1n[nH]c2ccccc12`, the T/C reads like this: (dose: 25.0 mg/kg/injection, schedule: Q01DX005 (ip), vehicle: acid diluted with saline) 102 % of control; (dose: 25.0 mg/kg/injection, schedule: Q01DX009 (ip), vehicle: acid diluted with saline) 113 % of control; (dose: 50.0 mg/kg/injection, schedule: Q01DX005 (ip), vehicle: acid diluted with saline) 106 % of control; (dose: 50.0 mg/kg/injection, schedule: Q01DX009 (ip), vehicle: acid diluted with saline) 99 % of control; (dose: 100.0 mg/kg/injection, schedule: Q01DX005 (ip), vehicle: acid diluted with saline) 104 % of control; (dose: 100.0 mg/kg/injection, schedule: Q01DX009 (ip), vehicle: acid diluted with saline) 103 % of control. In addition, where the note is “dose: 200.0 mg/kg/injection, schedule: Q01DX005 (ip), vehicle: acid diluted with saline”, the T/C was 110 % of control.
In the case of `CC1CCC(NC(=O)N(CCCl)N=O)CC1` (stereo not given), the T/C is 96 % of control (dose: 0.25 mg/kg/injection, schedule: Q01DX009 (ip), vehicle: saline + alcohol); 112 % of control (dose: 0.5 mg/kg/injection, schedule: Q01DX009 (ip), vehicle: saline + alcohol); 122 % of control (dose: 1.0 mg/kg/injection, schedule: Q01DX009 (ip), vehicle: saline + alcohol); 153 % of control and 239 % of control (dose: 4.0 mg/kg/injection, schedule: Q01DX009 (ip), vehicle: saline + alcohol); 107 % of control (dose: 4.0 mg/kg/injection, schedule: Q01DX009 (sc), vehicle: saline + alcohol); 225 % of control (dose: 5.3 mg/kg/injection, schedule: Q01DX009 (sc), vehicle: saline + alcohol). The T/C is, setting by setting: (dose: 8.0 mg/kg/injection, schedule: Q01DX009 (ip), vehicle: saline + alcohol) 163 % of control and 267 % of control; (dose: 8.0 mg/kg/injection, schedule: Q01DX009 (sc), vehicle: saline + alcohol) 120 % of control and 246 % of control; (dose: 10.7 mg/kg/injection, schedule: Q01DX009 (ip), vehicle: saline + alcohol) 745 % of control; (dose: 12.0 mg/kg/injection, schedule: Q01DX009 (sc), vehicle: saline + alcohol) 250 % of control; (dose: 16.0 mg/kg/injection, schedule: Q01DX009 (ip), vehicle: saline + alcohol) 200 % of control and 230 % of control; (dose: 16.0 mg/kg/injection, schedule: Q01DX009 (sc), vehicle: saline + alcohol) 198 % of control and 209 % of control. Moreover, the T/C is 400 % of control (dose: 21.4 mg/kg/injection, schedule: Q01DX009 (sc), vehicle: saline + alcohol); 153 % of control (dose: 24.0 mg/kg/injection, schedule: Q01DX009 (ip), vehicle: saline + alcohol); 123 % of control (dose: 24.0 mg/kg/injection, schedule: Q01DX009 (sc), vehicle: saline + alcohol); 162 % of control and 203 % of control (dose: 32.0 mg/kg/injection, schedule: Q01DX009 (sc), vehicle: saline + alcohol); 90 % of control (dose: 48.0 mg/kg/injection, schedule: Q01DX009 (ip), vehicle: saline + alcohol); 189 % of control (dose: 48.0 mg/kg/injection, schedule: Q01DX009 (sc), vehicle: saline + alcohol). The T/C by setting is: (dose: 64.0 mg/kg/injection, schedule: Q01DX009 (ip), vehicle: saline + alcohol) 150 % of control; (dose: 64.0 mg/kg/injection, schedule: Q01DX009 (sc), vehicle: saline + alcohol) 122 % of control; (dose: 256.0 mg/kg/injection, schedule: Q01DX009 (sc), vehicle: saline + alcohol) 120 % of control.

The values are drawn from PubChem BioAssay AID258 (DTP/NCI, 2004).
